Source: paper PMC4528135, “Kinetic Investigations of the Role of Factor Inhibiting Hypoxia-inducible Factor (FIH) as an Oxygen Sensor” (The Journal of Biological Chemistry, 2015)
Values joined by “and” are separate entries in the source; they are usually repeats but may differ in a detail not shown here. Equal values may be shown once.

Columns and labels:
[1] = biological target: T1, FIH (Homo sapiens, UniProt Q9NWT6); test: O2 dependence of FIH-catalyzed hydroxylation (hypoxia workstation); assay type: biochemical; conditions: for Km: FIH with the named substrate, 5 μM FIH, 500 μM peptide, 50 μM Fe(II), 1 mM 2OG, 1 mM L-ascorbate, 50 mM HEPES pH 7.5, 37 °C, hypoxia workstation at different pO2, triplicate assays, read-out: Km^app(O2)
T1 construct: Full-length recombinant FIH, two- and three-consensus ankyrin repeats (2CA and 3CA) were produced as described; His6 (cleaved yes); made in house; host or cells: Escherichia coli BL21(DE3)
Protocol: The O2 dependence of FIH-catalyzed reactions was determined by conducting enzymatic assays in an “In vivo 500 Hypoxia Workstation” (Ruskinn) using buffers pre-equilibrated under different pO2 values for 24 h. The O2 dependence of PHD2-catalyzed reactions was determined by conducting enzymatic assays in sealed glass vials with variable N2/O2 contents ([42]). Reactions were stopped by spotting samples onto a matrix-assisted laser desorption/ionization-time of flight mass spectrometry (MALDI-TOF-MS) target plate and immediately mixing with α-cyano-4-hydroxycinnamic acid matrix. Hydroxylation levels were assessed by MALDI-TOF-MS as described ([46]).
FIGURE 4. O2 dependence of FIH- and PHD2-catalyzed hydroxylation of HIF-1/2α. A, O2 dependence of PHD2-catalyzed hydroxylation of HIF-1/2α CODD/NODD 19-mer peptides. 4 μM PHD2, peptide (varied), 50 μM Fe(II), 2OG (varied), 4 mM L-ascorbate in HEPES 50 mM (pH 7.5) were incubated at 37 °C. The different O2 levels were maintained using mass flow controllers ([42]), and the hydroxylation levels were analyzed by MALDI-TOF-MS. B, O2 dependence of FIH-catalyzed hydroxylation of CAD HIF-1/2α 35-mer peptides. Conditions were as follows. 5 μM FIH, 500 μM peptide, 50 μM Fe(II), 1 mM 2OG, 1 mM L-ascorbate in HEPES 50 mM (pH 7.5) were incubated at 37 °C in a hypoxia work station under different pO2. […] Error bars, S.D. of triplicate assays.
FIGURE 8. Time course and O2 dependence of the FIH-catalyzed hydroxylation of HIF-α CAD and ARD substrates. Conditions were as follows. 5 μM FIH, 500 μM peptide, 50 μM Fe(II), 1 mM 2OG, 1 mM L-ascorbate in HEPES 50 mM (pH 7.5) were incubated at 37 °C. For O2 dependence studies, reactions were carried out in a hypoxic work station under different pO2 (assays at >20% O2 conducted using mass flow controllers ([42])). The different hydroxylation levels were analyzed by MALDI-TOF-MS or by LC-MS (for 2CA and 3CA). […] Error bars, S.D. of triplicate assays. A, time course of consensus ARD substrate hydroxylation (tankyrase-1 (tnkrs-1 20-mer and 35-mer) and one-consensus ankyrin repeat 20-mer (1CA)). B, time course of ARD peptide hydroxylation (one-consensus ankyrin repeat 20-mer (1CA), two ankyrin repeats (2CA), and three ankyrin repeats (3CA)). C, O2 dependence of HIF-1/2α CAD, 1CA, and tnkrs-1_35-mer hydroxylation. D, O2 dependence of 1CA, 2CA, and 3CA hydroxylation.

[2] = biological target: T1, FIH; test: Stopped-flow UV-visible spectroscopy, FIH·Fe(II)·2OG·substrate + O2; assay type: biochemical; conditions: anaerobic 0.5 mM FIH, 1 mM substrate, 5 mM 2OG, 0.4 mM Fe(II), 50 mM HEPES pH 7.5, mixed 1:1 with O2-saturated buffer at 5 °C; double exponential fit
Protocol: Stopped-flow UV-visible spectroscopy experiments were performed as described previously ([32], [42]). Anerobically prepared assay mixtures containing 0.5 mM apo-FIH, 1 mM substrate, 5 mM 2OG, 0.4 mM Fe(II) or 0.8 mM apo-PHD2, 1 mM substrate, 5 mM 2OG, 0.5 mM Fe(II) were rapidly mixed with O2-free/O2-saturated buffer. The reaction was observed over 1000 s using a photodiode array detector, and kinetic traces were analyzed using Origin version 8.51 software. Data were fitted with a double exponential function (y = A1 × exp(−kriset) + A2 × exp(−kfallt) + y0). The A1, A2, and y0 parameters were restricted with upper limits to match the observed amplitude/offset changes.
Kinetic traces were fitted using a double exponential function; the fitting parameters of intermediate formation and decay are summarized in Table 3.
FIGURE 10. Stopped-flow UV-visible absorbance changes upon FIH-catalyzed hydroxylation of HIF-1/2α CAD and ARD substrates. Reaction mixtures containing anaerobic 0.5 mM apo-FIH, 0.4 mM Fe(II), 5 mM 2OG, and 1 mM peptide in HEPES 50 mM (pH 7.5) were rapidly mixed with O2-saturated buffer at 5 °C in 1:1 ratio and analyzed using a photodiode array detector. The data were fitted with a double exponential function. A, decay at 500 nm (representing enzyme·substrate complex depletion) observed upon FIH-catalyzed hydroxylation of ARD substrates compared with HIF-1/2α CAD. B, formation and degradation of 310 nm species observed upon FIH-catalyzed HIF-1/2α CAD and ARD hydroxylation. C, decay at 500 nm observed upon FIH-catalyzed hydroxylation of 1CA, 2CA, and 3CA substrates.

T1 sequence (Q9NWT6 whole entry): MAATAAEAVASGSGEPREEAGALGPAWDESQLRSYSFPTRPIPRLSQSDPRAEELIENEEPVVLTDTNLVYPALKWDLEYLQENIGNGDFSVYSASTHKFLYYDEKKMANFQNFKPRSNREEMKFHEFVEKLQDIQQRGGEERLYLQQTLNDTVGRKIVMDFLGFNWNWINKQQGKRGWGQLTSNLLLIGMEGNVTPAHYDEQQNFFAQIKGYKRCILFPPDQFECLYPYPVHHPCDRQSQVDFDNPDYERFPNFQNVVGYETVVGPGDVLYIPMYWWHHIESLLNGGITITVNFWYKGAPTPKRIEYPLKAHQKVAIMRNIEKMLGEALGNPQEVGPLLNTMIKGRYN

| Sequence | Km^app(O2) fold higher than in the presence of 1CA and 2CA ([1]; FIH) | Km [1] | Stopped-flow, 500 nm (FIH) kfall phase [2] | Stopped-flow, 500 nm (FIH) krise phase [2] | Half-saturation of O2 ([1]; FIH-catalyzed hydroxylation, hypoxia workstation, 37 °C) |
| --- | --- | --- | --- | --- | --- |
| GSHMGSDLGKKLLEAARAGQDDEVRILMANGADVAAKDKNGSTPLHLAARNGHLEVVKLLLEAGADVNAQDKFGKTAFDISIDNGNEDLAEILQ [3CA, recombinant three-consensus ankyrin repeat protein produced in Escherichia coli] | 2 fold | 120 ± 20 µM | 10.5 ± 0.1 s⁻¹ | 1.7 s⁻¹ and 1.7 ± 0.3 s⁻¹ |  |
| HLEVVKLLLEAGADVNAQDK [1CA20-mer] |  | 40 ± 10 µM | 17.6 ± 0.1 s⁻¹ | 0.4 ± 0.1 s⁻¹ |  |
| AAGYNNLEVAEYLLEHGADVNAQDKGGLIPLHNAA [tnkrs-1_35-mer, 35-mer fragment of tankyrase-1, ARD substrate of FIH] |  | 50 ± 10 µM | 14.8 ± 0.2 s⁻¹ | 0.27 ± 0.03 s⁻¹ |  |
| DESGLPQLTSYDCEVNAPIQGSRNLLQGEELLRAL [HIF-1α CAD35-mer] |  | 110 ± 30 µM | 4.5 ± 0.3 s⁻¹ | 0.009 ± 0.005 s⁻¹ | 9–11 % O2 |
| SDKNGSTPLHLAARNGHLEVVKLLLEHGADVNAQDKWGKTAFDISIDNGNEDLAEILQ [2CA, recombinant two-consensus ankyrin repeat protein produced in Escherichia coli] |  | 56 ± 15 µM | 11.9 ± 0.2 s⁻¹ | 0.6 ± 0.1 s⁻¹ |  |
| ESYLLPELTRYDCEVNVPVLGSSTLLQGGDLLRAL [HIF-2α CAD35-mer] |  | 110 ± 10 µM | 4.9 ± 0.2 s⁻¹ | 0.017 ± 0.01 s⁻¹ |  |
